Reference: US10065990B2, “Cyclic peptide compound, and preparation method, pharmaceutical composition and use thereof” (HANGZHOU GUANYU BIO-MEDICAL CO., LTD, priority 2013, dated 2018)
Like-named read-outs stand apart in the source and are kept apart here.

How the values were obtained:
HDAC7 = biological target: T1, HDAC7 (Homo sapiens, UniProt Q8WUI4); assay: HDAC biochemical activity measurement (fluorescent substrate deacetylation);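 also: fluorogenic deacetylation assay using acetyl-lysine substrate at 20 µM, enzyme and compound incubated 30 min at 37 °C, then developer added, fluorescence read at 360/460 nm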; conditions: HDAC7; 37° C. 30 minutes
T1 sequence (Q8WUI4 1-952): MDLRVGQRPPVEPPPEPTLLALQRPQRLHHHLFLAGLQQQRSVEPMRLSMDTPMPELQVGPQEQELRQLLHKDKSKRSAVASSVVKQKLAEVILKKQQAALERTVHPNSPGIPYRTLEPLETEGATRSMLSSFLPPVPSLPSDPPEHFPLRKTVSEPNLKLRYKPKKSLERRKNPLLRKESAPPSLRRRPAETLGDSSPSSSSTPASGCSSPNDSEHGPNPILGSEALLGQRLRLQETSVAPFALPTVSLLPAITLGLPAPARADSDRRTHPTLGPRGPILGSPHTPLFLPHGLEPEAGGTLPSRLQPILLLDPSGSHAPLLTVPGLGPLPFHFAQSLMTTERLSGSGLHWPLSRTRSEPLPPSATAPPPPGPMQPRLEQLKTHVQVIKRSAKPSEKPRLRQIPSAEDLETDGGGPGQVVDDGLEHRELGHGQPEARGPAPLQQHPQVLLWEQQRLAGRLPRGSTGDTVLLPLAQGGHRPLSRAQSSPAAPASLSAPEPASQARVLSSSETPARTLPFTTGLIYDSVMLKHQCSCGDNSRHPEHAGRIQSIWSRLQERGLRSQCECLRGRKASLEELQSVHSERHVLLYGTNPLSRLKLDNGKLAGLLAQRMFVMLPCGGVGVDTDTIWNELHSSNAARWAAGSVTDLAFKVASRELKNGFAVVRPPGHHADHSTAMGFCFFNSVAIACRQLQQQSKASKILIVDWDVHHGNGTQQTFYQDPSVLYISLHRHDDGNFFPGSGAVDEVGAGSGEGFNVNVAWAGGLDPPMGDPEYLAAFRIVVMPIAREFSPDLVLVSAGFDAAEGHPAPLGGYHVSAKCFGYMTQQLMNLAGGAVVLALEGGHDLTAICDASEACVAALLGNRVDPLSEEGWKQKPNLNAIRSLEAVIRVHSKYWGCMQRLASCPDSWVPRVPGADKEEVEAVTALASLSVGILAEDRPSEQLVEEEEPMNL

[1] = system: lncap (prostate cancer cells); assay: MTT cancer cell growth inhibition; format: cell-based; conditions: Homo sapiens, LNCaP, 72 h, MTT, 72 hours incubation, read-out: GI50 lnca
Description: (§1) MTT assay principle is yellow MTT can penetrate membrane into the cell, succinic dehydrogenase of the mitochondria in living cells can make exogenous MTT reduction of insoluble in water of blue-violet acicular formazan for crystallization and deposition in the cell, crystallization can be dissolved dimethyl sulfoxide (DMSO) solution, detected its absorbance at 490 nm/570 nm wavelength by enzyme-linked immunosorbent assay, which can reflect the number of cells.
(§2) Using DMEM+10% FBS culture medium or using 1640+10% FBS culture, respectively.
(§3) a) Cells were seeded in 96-well plates with the inoculation of 1500/well, 190 μl/hole, 37° C., 5% of CO2 incubator overnight;
(§4) b) The next day each well was added 10 μl of different drugs. The final concentration of drug was 10^−5˜10^−10M, three parallel holes; 37° C., 5% CO2 culture incubator for 72 hours incubation;
(§5) c) Per well was added 20 μl 5 mg/ml of MTT, 37° C., 5% CO2 culture incubator for 4 hours incubation;
(§6) d) The supernatant was discarded. Each well was added 100 μl of DMSO and oscillation;
(§7) e) 570 nm readings. Calculate cell viability. GI50 calculation based on the results.

[2] = system: Hela (human cervical cancer cells); assay: MTT cancer cell growth inhibition; format: cell-based; conditions: MTT, 72 hours incubation, read-out: GI50 Hela
Description: as §1, §2, §3, §4, §5, §6, §7

[3] = system: KBM5-T315I (human chronic myelogenous leukemia); assay: MTT cancer cell growth inhibition; format: cell-based; conditions: MTT, 72 hours incubation, KBM5-T315I cells, read-out: GI50 KBM5-T315I
Description: as §1, §2, §3, §4, §5, §6, §7

[4] = system: Huh-7 (human hepatoma cells); assay: MTT cancer cell growth inhibition; format: cell-based; conditions: Homo sapiens, Huh-7, 72 h, MTT, 72 hours incubation, Huh-7 cells; read-out: GI50 Huh-7
Description: as §1, §2, §3, §4, §5, §6, §7

[5] = system: HT1080 (human fibrosarcoma cells); assay: MTT cancer cell growth inhibition; format: cell-based; conditions: MTT, 72 hours incubation, read-out: GI50 HT1
Description: as §1, §2, §3, §4, §5, §6, §7

[6] = system: U937 (human leukemia cells); assay: MTT cancer cell growth inhibition; format: cell-based; conditions: Homo sapiens, U-937, 72 h, MTT, 72 hours incubation, read-out: GI50 U93
Description: as §1, §2, §3, §4, §5, §6, §7

[7] = system: PANC-1 (Pac-1, human pancreatic cancer cells); assay: MTT cancer cell growth inhibition; format: cell-based; conditions: Homo sapiens, PANC-1, 72 h, MTT, 72 hours incubation, read-out: GI50 PAN
Description: as §1, §2, §3, §4, §5, §6, §7

[8] = system: HCC827 (human non-small cell lung cancer cells); assay: MTT cancer cell growth inhibition; format: cell-based; conditions: MTT, 72 hours incubation, HCC827 cells, read-out: GI50 HCC827
Description: as §1, §2, §3, §4, §5, §6, §7

[9] = system: KBM-5 (human chronic myelogenous leukemia); assay: MTT cancer cell growth inhibition; format: cell-based; conditions: Homo sapiens, KBM5, 72 h, MTT, 72 hours incubation, KBM-5 cells; read-out: GI50 KBM-5
Description: as §1, §2, §3, §4, §5, §6, §7

[10] = system: K562 (human leukemia cells); assay: MTT cancer cell growth inhibition; format: cell-based; conditions: Homo sapiens, K562, 72 h, MTT, 72 hours incubation, K562 cells; read-out: GI50 K562
Description: as §1, §2, §3, §4, §5, §6, §7

[11] = system: A549 (human lung cancer cells); assay: MTT cancer cell growth inhibition; format: cell-based; conditions: MTT, 72 hours incubation, read-out: GI50 A54
Description: as §1, §2, §3, §4, §5, §6, §7

[12] = system: N-87 (human gastric cancer cells); assay: MTT cancer cell growth inhibition; format: cell-based; conditions: Homo sapiens, 72 h, MTT, 72 hours incubation, N-87 cells; read-out: GI50 N-87
Description: as §1, §2, §3, §4, §5, §6, §7

[13] = system: Bel-7402 (human hepatoma cells); assay: MTT cancer cell growth inhibition; format: cell-based; conditions: MTT, 72 hours incubation, Bel-7402 cells, read-out: GI50 Bel-7402
Description: as §1, §2, §3, §4, §5, §6, §7

[14] = system: DU145 (human prostate cancer cells); assay: MTT cancer cell growth inhibition; format: cell-based; conditions: Homo sapiens, DU-145, 72 h, MTT, 72 hours incubation, read-out: GI50 Du1
Description: as §1, §2, §3, §4, §5, §6, §7

[15] = system: MDA-MB-231 (breast cancer cells); assay: MTT cancer cell growth inhibition; format: cell-based; conditions: Homo sapiens, MDA-MB-231, 72 h, read-out: GI50 MDA-MB-231, MTT, 72 hours incubation, MDA-MB-231 cells
Description: as §1, §2, §3, §4, §5, §6, §7

[16] = system: MOLT-4 (human acute lymphoblastic leukemia cells); assay: MTT cancer cell growth inhibition; format: cell-based; conditions: Homo sapiens, MOLT-4, 72 h, MTT, 72 hours incubation, read-out: GI50 Mol
Description: as §1, §2, §3, §4, §5, §6, §7

[17] = system: BGC-823 (human gastric cancer cells); assay: MTT cancer cell growth inhibition; format: cell-based; conditions: Homo sapiens, BGC-823, 72 h, MTT, 72 hours incubation, read-out: GI50 BG
Description: as §1, §2, §3, §4, §5, §6, §7

[18] = system: MCF-7 (human breast cancer cells); assay: MTT cancer cell growth inhibition; format: cell-based; conditions: Homo sapiens, MCF7, 72 h, 72 hours incubation, read-out: GI50 MCF
Description: as §1, §2, §3, §4, §5, §6, §7

[19] = system: SGC-7901 (human gastric cancer cells); assay: MTT cancer cell growth inhibition; format: cell-based; conditions: Homo sapiens, SGC-7901, 72 h, MTT, 72 hours incubation, SGC-7901 cells; read-out: GI50 SGC-7901
Description: as §1, §2, §3, §4, §5, §6, §7

[20] = system: H1975 (non-small cell lung adenocarcinoma); assay: MTT cancer cell growth inhibition; format: cell-based; conditions: MTT, 72 hours incubation, H1975 cells, read-out: GI50 H1975
Description: as §1, §2, §3, §4, §5, §6, §7

| Compound | IC50 HDAC7 (HDAC7) | GI50 ([1]; lncap cells) | GI50 ([3]; Homo sapiens, 72 h) | GI50 [4] | GI50 ([6]; U937 cells) | GI50 ([7]; PANC-1 cells) | GI50 ([8]; Homo sapiens, HCC827, 72 h) | GI50 [9] | GI50 [10] | GI50 [12] | GI50 ([13]; Homo sapiens, Bel-7402, 72 h) | GI50 ([14]; DU145 cells) | GI50 [15] | GI50 ([16]; MOLT-4 cells) | GI50 ([17]; BGC-823 cells) | GI50 ([18]; MCF-7 cells) | GI50 [19] | GI50 ([20]; Homo sapiens, NCI-H1975, 72 h) | further results |
| --- | --- | --- | --- | --- | --- | --- | --- | --- | --- | --- | --- | --- | --- | --- | --- | --- | --- | --- | --- |
| C/C=C1\NC(=O)c2ccc(SC)c(n2)CNC(=O)C[C@@H](/C=C/CCS)OC(=O)[C@H](CC)NC1=O [Compound 231] | no activity | 30 nM | 57 nM | 48 nM | 80 nM | 10 nM | 77 nM | 38 nM | 37 nM | 36 nM | 58 nM | 50 nM | 25 nM | 50 nM | 10 nM | 80 nM | 11 nM | 25 nM | GI50 ([2]; Homo sapiens, HeLa, 72 h, Hela cells): 40 nM; GI50 ([5]; Homo sapiens, HT-1080, 72 h, HT1080 cells): 30 nM; GI50 ([11]; Homo sapiens, A549, 72 h, A549 cells): 60 nM |
| C/C=C1\NC(=O)c2nc(ccc2F)CNC(=O)C[C@@H](/C=C/CCSC(C)=O)OC(=O)[C@H](CCCCNC(=O)OCC2c3ccccc3-c3ccccc32)NC1=O [Example 75] | no activity |  | 26 nM | 35 nM |  |  | 42 nM | 61 nM | 28 nM | 22 nM | 42 nM |  | 35 nM |  |  |  | 41 nM | 28 nM | GI50 [1]: 30 nM; GI50 ([2]; Homo sapiens, HeLa, 72 h): 60 nM; GI50 ([5]; Homo sapiens, HT-1080, 72 h): 40 nM; GI50 [6]: 20 nM; GI50 [7]: 40 nM; GI50 ([11]; Homo sapiens, A549, 72 h): 40 nM; GI50 [14]: 20 nM; GI50 [16]: 30 nM; GI50 [17]: 20 nM; GI50 [18]: 20 nM |
| C/C=C1\NC(=O)c2ccc(SC)c(n2)CNC(=O)C[C@@H](/C=C/CCSC(C)=O)OC(=O)[C@H](C)NC1=O [Compound 185] | no activity | 80 nM |  | 71 nM | 50 nM | 30 nM |  | 28 nM | 36 nM | 26 nM |  | 30 nM | 71 nM | 50 nM | 30 nM | 60 nM | 44 nM |  | GI50 ([2]; Hela cells): 50 nM; GI50 [3]: 13 nM; GI50 ([5]; HT1080 cells): 50 nM; GI50 [8]: 82 nM; GI50 ([11]; A549 cells): 10 nM; GI50 [13]: 91 nM; GI50 [20]: 12 nM |
